This note sets out measurements from patent US20040171566A1, “Antisense modulation of p38 mitogen activated protein kinase expression” (priority 1999, published 2004).

One series concerns mouse p38α mRNA. Put plainly: Mouse p38α mRNA levels in bEND.3 cells, quantitative real-time PCR. Further details: % Inhib. mouse p38α: concentration or dose not given beside the values. Format: cell-based. In short, it runs like this: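 Mouse bEND.3 cells, antisense oligonucleotide-treated; p38α mRNA measured by one-step real-time RT-PCR (RT 30 min at 48 °C, then 40 cycles) with a FAM/TAMRA probe. Levels normalized to GAPDH or RiboGreen total RNA, and percent inhibition derived from standard curves of untreated-control mRNA.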

Another series has as its system p38α. Put plainly: p38α knock-down in mouse macrophage cell line RAW264.7, Western blotting. In kind it is cell-based. Background: Immunoblotting shows a protein as a band on a membrane.
The test system of series [1] is ovalbumin (OVA)-induced airway hyperresponsiveness and allergic inflammation. Put plainly: Mouse model of allergic inflammation (OVA), aerosol oligonucleotide administration. Format: in vivo. The method, then: In the mouse model of allergic inflammation, mice were sensitized and challenged with aerosolized chicken ovalbumin (OVA). Airway responsiveness was assessed by inducing airflow obstruction with a methacholine aerosol using a noninvasive method. This methodology utilized unrestrained conscious mice that are placed into the main chamber of a plthysmograph (Buxco Electronics, Inc., Troy, N.Y.). Pressure differences between this chamber and a reference chamber were used to extrapolate minute volume, breathing frequency and enhanced pause (Penh). Penh is a dimensionless parameter that is a function of total pulmonary airflow in mice (i.e., the sum of the airflow in the upper and lower respiratory tracts) during the respiratory cycle of the animal. The lower the Penh, the greater the airflow. This parameter closely correlates with lung resistance as measured by traditional invasive techniques using ventilated animals (Hamelmann et al., 1997). Dose-response data were plotted as raw Penh values to increasing concentrations of methacholine. This system was used to test the efficacy of an antisense oligonucleotide targeted to mouse p38α (ISIS 101757; SEQ ID NO: 177). Mismatched p38α oligonucleotide (ISIS 101758; SEQ ID NO: 266) was used as a negative control.
[…]. […] AHR was measured 24 hours after OVA challenge.
Animals were injected with a lethal dose of ketamine, the trachea was exposed and a cannula was inserted and secured by sutures. The lungs were lavaged twice with 0.5 ml aliquots of ice cold PBS with 0.2% FCS. The recovered BAL fluid was centrifuged at 1,000 rpm for 10 min at 4° C., frozen on dry ice and stored at −80° C. until used. Luminex was used to measure cytokine levels in BAL fluid and serum.
Cytospins of cells recovered from BAL fluid were prepared using a Shandon Cytospin 3 (Shandon Scientific LTD, Cheshire, England). Cell differentials were performed from slides stained with Leukostat (Fisher Scientific, Pittsburgh, Pa.). Total cell counts were quantified by hemocytometer and, together with the percent type by differential, were used to calculate specific cell number.
Before resection, lungs were inflated with 0.5 ml of 10% phosphate-buffered formalin and fixed overnight at 4° C. The lung samples were washed free of formalin with 1×PBS and subsequently dehydrated through an ethanol series prior to equilibration in xylene and embedded in paraffin. Sections (6μ) were mounted on slides and stained with hematoxylin/eosin, massons trichome and periodic acid-schiff (PAS) reagent. Parasagittal sections were analyzed by bright-field microscopy. Mucus cell content was assessed as the airway epithelium staining with PAS. Relative comparisons of mucus content were made between cohorts of animals by counting the number of PAS-positive airways.

[2] abbreviates: sensitized mice, aerosol, compared to the mismatched control.

With “ISIS 101757: antisense oligonucleotide targeted to mouse p38α, SEQ ID NO 177; 2′-MOE gapmer, all phosphorothioate linkages (antisense AGGTGCTCAGGACTCCATTT; all phosphorothioate, sugars by position and methylation of C not given here; 2'-MOE gapmer)”, in the series on mouse p38α mRNA (bEND.3 cells, mRNA by quantitative real-time PCR, average of two experiments), the “% Inhib. mouse p38α” value is on record as 88%. Also, the concentration for half-maximal inhibition (IC50) in the series on mouse p38α mRNA (endothelial cells, read-out: IC50 for reducing p38α mRNA) was less than 50 nM. In addition, in the series with p38α, the p38α knock-down effect entry is “confirmed”. Besides, the “provocation concentration of methacholine required to achieve doubling of airway reactivity (PC200)” value in series [1] (OVA-challenged mice, inhaled) was “increases”. For the same substance, the “methacholine-induced AHR” value in series [1] (OVA-sensitized mice, aerosol, whole body plethysmography) is reported as “dose-dependently suppressed”. In series [1] (aerosol), the “OVA-induced increases in eosinophils recovered in BAL fluid” value is on record as “significantly (P<0.05) reduced” and the “OVA-induced increases in total cell counts recovered in BAL fluid” value is recorded as “significantly (P<0.05) reduced”. Besides, in series [1] (aerosol, histology), the “OVA-induced inflammatory cell infiltration into the lungs (H&E stain)” value is “markedly inhibited” and the “mucus hypersecretion in the airway epithelium (PAS stain)” value is recorded as “markedly inhibited”. For the same substance, in series [1] (setting [2]), the “blood levels of OVA-specific IgE” value is “significantly (P<0.05);lowered”, the “blood levels of OVA-specific IgG1” value is “significantly (P<0.05);lowered” and the “blood levels of total IgE” value is listed as “significantly (P<0.05);lowered”.

What is called IC50 is the concentration that inhibits the measured activity by half.
